Measured values from US9056110B2, “Substituted pyrimidinone-phenyl-pyrimidinyl compounds” (Confluence Life Sciences, Inc., priority 2011, dated 2015).

What was measured:
[1] = system: TNFα; test: LPS stimulated TNFα production in human PBMCs (ELISA); assay type: cell-based; conditions: PBMC, LPS 0.1 μg/ml, 18-24 hours, read-out: PBMC Cell, TNFα IC50
Experimental: Evaluation of the potency and efficacy of p38 inhibitors to block cytokine production is carried out using the human U937 cell line and purified human PBMCs (peripheral blood mononuclear cells). The U937 human pre-monocytic cell line is obtained from the American Type Culture Collection (Rockville, Md.). These cells are differentiated to a monocytic/macrophage phenotype as described by Burnette (Burnette et al., (2009). SD0006: a potent, selective and orally available inhibitor of p38 kinase, Pharmacology 84(1):42-60). Differentiated U937 cells are seeded into 96-well tissue culture plates (200,000 cells/well) in complete media. After 24 hours, the cells are pretreated for 60 minutes in the presence or absence of compound and then stimulated with LPS (lipopolysaccharide) (0.1 μg/mL) for 4 hours. Culture media are then collected for determination of TNFα or IL-6 levels by ELISA. Human PBMCs are isolated from leukopacks as described by Burnette (Burnette et al., (2009), op. cit.). The cells are seeded into 96-well tissue culture plates (200,000 cells/well) in complete media. After a one hour recovery period at 37° C., 5% CO2, the cells are pretreated for 60 minutes in the presence or absence of compound and then stimulated with LPS (0.1 μg/ml) for 18-24 hours. Culture media are then collected for determination of TNFα and IL1β by ELISA. Cytokine concentrations are extrapolated from recombinant protein standard curves using a four-parameter logistic model and solving for IC50 after iterating to the best least-squares fit. p38 inhibitors will show a dose dependent inhibition of LPS stimulated TNFα, and IL6 in differentiated U937 cells and a dose dependent inhibition of LPS stimulated TNFα, IL6 and IL1b in human PBMCs. As drugs that down-regulate TNFα, IL6 and IL1b are efficacious in a number of autoimmune, autoinflammatory inflammatory, cardiovascular and oncological diseases, it would be expected that p38 drugs that inhibit these cytokines and other enzymes and mediators of disease will be effective drugs. Species compounds of Formula (I), described hereinabove, evaluated in this assay, are expected to provide a therapeutic benefit in the treatment of p38 kinase mediated diseases, including lymphoma and inflammation.

[2] = target: p38α/PRAK (Homo sapiens, UniProt Q16539); test: p38α/PRAK cascade assay (IMAP, Hsp27 peptide phosphorylation); assay type: biochemical; conditions: Hsp27 peptide 1 μM, MgATP 10 μM, 120 minutes, read-out: p38/PRAK IC50
Sequence of p38α/PRAK (Q16539 whole entry): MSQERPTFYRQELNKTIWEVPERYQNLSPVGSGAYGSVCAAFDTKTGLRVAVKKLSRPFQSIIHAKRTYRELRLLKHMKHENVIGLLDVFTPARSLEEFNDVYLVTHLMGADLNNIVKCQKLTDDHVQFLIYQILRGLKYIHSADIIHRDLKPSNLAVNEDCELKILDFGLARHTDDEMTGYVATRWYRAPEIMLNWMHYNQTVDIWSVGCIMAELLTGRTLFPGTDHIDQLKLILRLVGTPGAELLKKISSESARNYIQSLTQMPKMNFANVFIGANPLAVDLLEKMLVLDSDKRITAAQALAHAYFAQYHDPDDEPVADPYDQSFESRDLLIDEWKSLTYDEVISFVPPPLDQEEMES
Experimental: (§1) P38 inhibitory potency and P38/MK2 substrate selectivity: The novel, MK2 substrate-selective inhibitory mechanism of compounds is evaluated in enzyme assays that compare inhibitor potency in blocking p38/MK2 versus p38/PRAK induced phosphorylation of an HSP-27 derived peptide substrate. The ability of compounds to inhibit activated phospho-p38α is evaluated using a p38α/MK2 and a p38α/PRAK cascade assay format. The kinase activity of p38α is determined by its ability to phosphorylate and activate GST-MK2 or GST-PRAK. The kinase activity of activated MK2 and PRAK is followed by measuring the phosphorylation of a fluorescently-labeled, peptide substrate based on the sequence of Hsp27 (FITC-KKKALSRQLSVAA). The phosphorylation of the Hsp27 peptide is quantified using IMAP assay technology (Molecular Devices) and the Analyst HT plate reader (LJL Biosystems). Kinase reactions are carried out in a 384-well plate (Corning 3575) in 20 mM HEPES pH 7.5, 10 mM MgCl2, 0.0005% Tween-20, 0.01% BSA, 1 mM DTT, and 2% DMSO. The inhibitor concentration varies between 0.5-30,000 nM, while the Hsp27 peptide substrate and MgATP are held constant at 1 μM and 10 μM, respectively. Activated p38α is added to a final concentration of 20 pM for reactions with 1 nM nonphosphorylated 1 nM GST-MK2. For the p38α/PRAK cascade, unactivated GST-PRAK is held constant at 10 nM while p38α is added to a final concentration of […]. Kinase reactions are incubated at room temperature and quenched after 120 minutes by the addition of 1× Progressive Binding Buffer A containing 1×IMAP beads (IMAP FP Progressive Screening Express Kit, Molecular Devices Catalog Number R8127). Inhibitor potency is calculated by fitting dose-response data to the 4-parameter logistical IC50 equation. The substrate selectivity is calculated as a ratio of p38α/PRAK:p38α/MK2 IC50 values. A substrate selective inhibitor will have a p38α/PRAK:p38α/MK2 IC50 ratio of >2 while a classical p38 inhibitor will have a ratio of between 0.5-2. […] By way of example, the enhanced therapeutic benefit could be associated with a reduction in inhibition of p38 mediated anti-inflammatory functions, such as IL-10 production and TAB1 phosphorylation. An increased safety profile is expected based, for example, on a reduced inhibition of p38 substrates, such as PPARg and CDC25 phosphatase and PLA2 involved in gluconeogenesis and cell cycle regulation, respectively.

[3] = target: p38α/MK2 (Homo sapiens, UniProt Q16539); test: p38α/MK2 cascade assay (IMAP, Hsp27 peptide phosphorylation); assay type: biochemical; conditions: for IC50: p38α/MK2 cascade, Hsp27 peptide 1 μM, MgATP 10 μM, 120 minutes, read-out: p38/MK2 IC50; for Selectivity Ratio: ratio of p38α/PRAK:p38α/MK2 IC50 values
Sequence of p38α/MK2 (Q16539 whole entry): as above
Sequence of p38α/MK2 (P49137 whole entry partner): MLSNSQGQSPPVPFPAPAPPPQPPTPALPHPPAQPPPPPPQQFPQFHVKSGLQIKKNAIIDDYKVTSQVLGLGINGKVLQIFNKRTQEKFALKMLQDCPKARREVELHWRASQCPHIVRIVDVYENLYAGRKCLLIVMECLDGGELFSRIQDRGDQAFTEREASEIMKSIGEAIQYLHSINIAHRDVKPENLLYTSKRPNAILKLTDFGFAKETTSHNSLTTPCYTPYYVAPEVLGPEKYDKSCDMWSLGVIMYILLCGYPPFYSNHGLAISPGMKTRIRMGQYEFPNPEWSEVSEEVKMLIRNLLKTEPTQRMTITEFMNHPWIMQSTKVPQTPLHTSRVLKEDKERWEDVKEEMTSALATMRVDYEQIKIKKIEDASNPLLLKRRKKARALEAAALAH
Experimental: as §1

| SMILES | IC50 [1] | IC50 [2] | IC50 [3] | Selectivity Ratio [3] |
| --- | --- | --- | --- | --- |
| Cc1cccc(COc2nc(C)n(-c3cc(-c4ccnc(C(C)(C)C)n4)ccc3C)c(=O)c2Cl)c1 [Example 4, 3-(5-(2-(tert-butyl)pyrimidin-4-yl)-2-methylphenyl)-5-chloro-2-methyl-6-((3-methylbenzyl)oxy)pyrimidin-4(3H)-one] | 101 nM | 12900 nM | 1020 nM | 12.6 |
| Cc1cccc(COc2nc(C)n(-c3cc(-c4ccnc(C(C)(C)O)n4)ccc3C)c(=O)c2Cl)c1 [Example 5, 5-chloro-3-(5-(2-(2-hydroxypropan-2-yl)pyrimidin-4-yl)-2-methylphenyl)-2-methyl-6-((3-methylbenzyl)oxy)pyrimidin-4(3H)-one] | 40 nM | 582 nM | 39 nM | 14.9 |
| COc1cccc(COc2nc(C)n(-c3cc(-c4ccnc(C(C)(C)C)n4)ccc3C)c(=O)c2Cl)c1 [Example 6, 3-[5-(2-tert-butyl-pyrimidin-4-yl)-2-methyl-phenyl]-5-chloro-6-(3-methoxy-benzyloxy) -2-methyl-3H-pyrimidin-4-one] | 270 nM | 11600 nM | 1900 nM | 6.1 |
| COc1cccc(COc2nc(C)n(-c3cc(-c4ccnc(C(C)(C)O)n4)ccc3C)c(=O)c2Cl)c1 [Example 7, 5-chloro-3-(5-(2-(2-hydroxypropan-2-yl)pyrimidin-4-yl)-2-methylphenyl)-6-((3-methoxybenzyl)oxy)-2-methylpyrimidin-4(3H)-one] | 94 nM | 1490 nM | 62 nM | 24 |
| Cc1nc(COc2nc(C)n(-c3cc(-c4ccnc(C(C)(C)O)n4)ccc3C)c(=O)c2Cl)co1 [Example 9, (−)-5-chloro-3-(5-(2-(2-hydroxypropan-2-yl)pyrimidin-4-yl)-2-methylphenyl)-2-methyl-6-((2-methyloxazol-4-yl)methoxy)pyrimidin-4(3H)-one] | 277 nM | 1330 nM | 126 nM | 10.6 |
| Cc1nc(COc2nc(C)n(-c3cc(-c4ccnc(C(C)(C)O)n4)ccc3C)c(=O)c2Br)cs1 [Example 11, 5-bromo-3-(5-(2-(2-hydroxypropan-2-yl)pyrimidin-4-yl)-2-methylphenyl)-2-methyl-6-((2-methylthiazol-4-yl)methoxy)pyrimidin-4(3H)-one] | 126 nM | 675 nM | 62 nM | 10.9 |
| Cc1nc(COc2nc(C)n(-c3cc(-c4ccnc(C(C)(C)O)n4)ccc3C)c(=O)c2Cl)cs1 [Example 12, 5-chloro-3-(5-(2-(2-hydroxypropan-2-yl)pyrimidin-4-yl)-2-methylphenyl)-2-methyl-6-((2-methylthiazol-4-yl)methoxy)pyrimidin-4(3H)-one] | 118 nM | 1360 nM | 76 nM | 17.9 |
| Cc1cccc(COc2nc(C)n(-c3cc(-c4ccnc(C(C)(C)O)n4)ccc3C)c(=O)c2Br)n1 [Example 13, 5-bromo-3-(5-(2-(2-hydroxypropan-2-yl)pyrimidin-4-yl)-2-methylphenyl)-2-methyl-6-((6-methylpyridin-2-yl)methoxy)pyrimidin-4(3H)-one] | 140 nM | 1280 nM | 83 nM | 15.4 |
| Cc1cccc(COc2nc(C)n(-c3cc(-c4ccnc(C(C)(C)O)n4)ccc3C)c(=O)c2Cl)n1 [Example 15, (−)-5-chloro-3-(5-(2-(2-hydroxypropan-2-yl)pyrimidin-4-yl)-2-methylphenyl)-2-methyl-6-((6-methylpyridin-2-yl)methoxy)pyrimidin-4(3H)-one] | 70 nM | 1230 nM | 52 nM | 23.6 |
| Cc1ccc(-c2ccnc(C(C)(C)O)n2)cc1-n1c(C)nc(OCc2cccc(C(F)(F)F)n2)c(Cl)c1=O [Example 17, 5-chloro-3-(5-(2-(2-hydroxypropan-2-yl)pyrimidin-4-yl)-2-methylphenyl)-2-methyl-6-((6-(trifluoromethyl)pyridin-2-yl)methoxy)pyrimidin-4(3H)-one] | 3750 nM | > 30000 nM | 1700 nM | >17.6 |
| Cc1ccc(-c2ccnc(C(C)(C)O)n2)cc1-n1c(C)nc(OCc2cccc(F)n2)c(Cl)c1=O [Example 18, 5-chloro-6-((6-fluoropyridin-2-yl)methoxy)-3-(5-(2-(2-hydroxypropan-2-yl)pyrimidin-4-yl)-2-methylphenyl)-2-methylpyrimidin-4(3H)-one] | 624 nM | 7690 nM | 579 nM | 13.3 |
| Cc1ccc(-c2ccnc(C(C)(C)O)n2)cc1-n1c(C)nc(OCc2ncc(F)cc2F)c(Cl)c1=O [Example 21, (−)-5-chloro-6-((3,5-difluoropyridin-2-yl)methoxy)-3-(5-(2-(2-hydroxypropan-2-yl)pyrimidin-4-yl)-2-methylphenyl)-2-methylpyrimidin-4(3H)-one] | 96 nM | 252 nM | 33 nM | 7.63 |
| Cc1ccc(-c2ccnc(C(C)(C)O)n2)cc1-n1c(C)nc(OCc2ccc(F)c(C)c2F)c(Cl)c1=O [Example 22, 5-chloro-6-(2,4-difluoro-3-methyl-benzyloxy)-3-{5-[2-(1-hydroxy-1-methyl-ethyl)-pyrimidin-4-yl]-2-methyl-phenyl}-2-methyl-3H-pyrimidin-4-one] | 215 nM | 5820 nM | 386 nM | 15.1 |
| Cc1cc(COc2nc(C)n(-c3cc(-c4ccnc(C(C)(C)O)n4)ccc3C)c(=O)c2Cl)c(F)cc1F [Example 23, 5-chloro-6-((2,4-difluoro-5-methylbenzyl)oxy)-3-(5-(2-(2-hydroxypropan-2-yl)pyrimidin-4-yl)-2-methylphenyl)-2-methylpyrimidin-4(3H)-one] | 74 nM | 514 nM | 44 nM | 11.7 |
